Assay results: article PMC4561856, “Atomic basis for therapeutic activation of neuronal potassium channels” (Nature Communications, 2015)
Where a chain is given by its changes, count along the chain named. Like-named read-outs stand apart in the source and are kept apart here.

Columns and labels:
[1] = target: T1, KCNQ3* (KCNQ3[Ala315Thr]) (Homo sapiens, UniProt O43525, A315T); assay: Two-electrode voltage clamp of homomeric KCNQ3* channels in Xenopus oocytes; format: cell-based
T1 sequence (O43525 1-872 A315T): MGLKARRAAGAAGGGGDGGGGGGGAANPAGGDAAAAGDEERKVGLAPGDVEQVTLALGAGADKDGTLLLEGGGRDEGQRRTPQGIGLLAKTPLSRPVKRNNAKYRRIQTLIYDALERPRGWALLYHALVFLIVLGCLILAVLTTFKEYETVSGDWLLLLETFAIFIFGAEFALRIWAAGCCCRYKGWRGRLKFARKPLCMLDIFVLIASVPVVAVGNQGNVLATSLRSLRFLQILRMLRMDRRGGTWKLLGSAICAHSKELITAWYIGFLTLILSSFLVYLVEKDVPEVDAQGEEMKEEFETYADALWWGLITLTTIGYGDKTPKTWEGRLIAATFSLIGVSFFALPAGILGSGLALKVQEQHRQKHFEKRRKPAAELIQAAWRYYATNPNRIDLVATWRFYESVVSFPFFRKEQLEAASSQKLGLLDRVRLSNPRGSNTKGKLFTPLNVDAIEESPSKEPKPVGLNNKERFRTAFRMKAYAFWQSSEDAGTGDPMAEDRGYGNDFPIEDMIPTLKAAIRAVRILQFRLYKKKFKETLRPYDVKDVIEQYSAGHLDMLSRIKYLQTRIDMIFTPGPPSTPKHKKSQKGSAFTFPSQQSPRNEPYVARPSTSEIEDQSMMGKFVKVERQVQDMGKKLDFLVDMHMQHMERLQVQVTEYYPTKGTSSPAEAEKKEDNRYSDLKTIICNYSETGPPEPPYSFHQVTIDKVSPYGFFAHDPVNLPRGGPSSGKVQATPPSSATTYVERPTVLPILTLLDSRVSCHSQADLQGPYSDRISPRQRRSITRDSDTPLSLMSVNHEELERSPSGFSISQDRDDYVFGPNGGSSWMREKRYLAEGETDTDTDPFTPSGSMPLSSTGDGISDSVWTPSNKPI
Source text: (§1) KCNQ2 (human) and KCNQ3 (human) channel cDNAs were propagated and manipulated using the pTLN vector (gifts of Dr M. Taglialatela and Dr T. Jentsch). Introduction of point mutations was accomplished using PCR to combine two fragments each of which contained the mutation in an overlapping region of the sequence (‘two-step’ PCR method). To accomplish this, we used standard PCR approaches to amplify a 5′ fragment and a 3′ fragment (using a ‘flanking primer’ paired with a mutagenic primer). These fragments were then mixed along with the ‘flanking primer’ pair for a second round of PCR to combine the overlapping fragments. The resulting fragment was then subcloned into the appropriate parent vector using EcoRI and NotI restriction enzymes, and the sequence was verified by Sanger sequencing approaches (Genewiz). Sequences for the flanking primers and the ‘forward’ mutagenic primers are provided in Supplementary Table 1 for all mutations that were generated (‘reverse’ mutagenic primers are simply the reverse complement). In all experiments involving homomeric expression of KCNQ3 channels (including in vivo nonsense suppression experiments), the Ala315Thr mutation was introduced to enable efficient trafficking of homomeric KCNQ3. […] The plasmid encoding CivSP was kindly provided by Dr Y. Okamura. Complementary RNA was transcribed from the cDNA using the mMessage mMachine Kit (Ambion). Stage V–VI Xenopus laevis oocytes were prepared as previously described and were injected with cRNA alone or cRNA plus synthetic tRNA (for nonsense suppression, described below). Oocyte preparation was carried out using a protocol approved by the University of British Columbia Animal Care Committee, in accordance with the Canadian Council for Animal Care guidelines. We used female Xenopus laevis frogs 100 g or greater in size. After injection, oocytes were incubated for 12–48 h at 18 °C before recording.
Voltage-clamped potassium currents were recorded in standard Ringers solution (in mM): 116 NaCl, 2 KCl, 1 MgCl2, 0.5 CaCl2, 5 HEPES (pH 7.4) using an OC-725C voltage clamp (Warner, Hamden, CT). Glass microelectrodes were backfilled with 3 M KCl and had resistances of 0.1–1 MΩ. Data were filtered at 5 kHz and digitized at 10 kHz using a Digidata 1440A (Molecular Devices) controlled by the pClamp 10 software (Molecular Devices). Drugs were purchased from Toronto Research Chemicals (retigabine) or Tocris (ML-213, flupirtine, ICA-069673, ICA-110381), stored as 100 mM stocks in dimethylsulphoxide and diluted to working concentrations each experimental day.

[2] = system: KCNQ3*[Trp265TAG] rescued with F3-Trp; assay: Two-electrode voltage clamp of F3-Trp-rescued KCNQ3*[Trp265TAG] channels (nonsense suppression); format: cell-based, human; settings: for drug potency relative to Trp-rescued channels: F3-Trp substitution at Trp265
Source text: as §1
Fluorinated Trp derivatives (5-F1-Trp; 7-F1-Trp; 5,7-F2-Trp (F2-Trp) and 5,6,7-F3-Trp (F3-Trp) were purchased from Asis Chem (Watertown, MA) and Sigma-Aldrich (St Louis, MO). The ‘Ind’ Trp variant was synthesized in-house as described previously. Incorporation of unnatural amino acids into ion channel proteins was carried out as described extensively in prior publications. Briefly, unnatural amino acids (aa) were protected with nitroveratryloxycarbonyl and were activated as the cyanomethyl ester, which were then coupled to the dinucleotide pdCpA (GE Healthcare/Dharmacon, Lafayette, CO). This aminoacyl dinucleotide was subsequently ligated to a modified (G73) Tetrahymena thermophile tRNA. […]
(§2) Voltage-clamped potassium currents were recorded in standard Ringers solution (in mM): 116 NaCl, 2 KCl, 1 MgCl2, 0.5 CaCl2, 5 HEPES (pH 7.4) using an OC-725C voltage clamp (Warner, Hamden, CT). […]

KCNQ2 = KCNQ2 (Homo sapiens, UniProt O43526); assay: Two-electrode voltage clamp of homomeric KCNQ2 channels in Xenopus oocytes; format: cell-based; settings: 100 μM retigabine (Fig. 1)
Source text: (§3) KCNQ2 (human) and KCNQ3 (human) channel cDNAs were propagated and manipulated using the pTLN vector (gifts of Dr M. Taglialatela and Dr T. Jentsch). Introduction of point mutations was accomplished using PCR to combine two fragments each of which contained the mutation in an overlapping region of the sequence (‘two-step’ PCR method). To accomplish this, we used standard PCR approaches to amplify a 5′ fragment and a 3′ fragment (using a ‘flanking primer’ paired with a mutagenic primer). These fragments were then mixed along with the ‘flanking primer’ pair for a second round of PCR to combine the overlapping fragments. The resulting fragment was then subcloned into the appropriate parent vector using EcoRI and NotI restriction enzymes, and the sequence was verified by Sanger sequencing approaches (Genewiz). Sequences for the flanking primers and the ‘forward’ mutagenic primers are provided in Supplementary Table 1 for all mutations that were generated (‘reverse’ mutagenic primers are simply the reverse complement). […]
as §2

KCNQ2/3 heteromers = target: T2, KCNQ2/3 heteromers (Homo sapiens, UniProt O43525+O43526); assay: Two-electrode voltage clamp of heteromeric KCNQ2/3 channels in Xenopus oocytes; format: cell-based; settings: 1:1 injected mRNA
T2 construct: expressed in transfected cells; host or cells: Xenopus laevis oocytes co-injected with KCNQ2 and KCNQ3 mRNA (1:1)
Source text: as §3, §2

KCNQ3*[Trp265Ind] = assay: Two-electrode voltage clamp of Ind-rescued KCNQ3*[Trp265TAG] channels (nonsense suppression); format: cell-based, human; settings: Ind at position 265; up to 100 μM retigabine
Source text: as §3, §2

[3] = target: T3, KCNQ3*[Trp265TAG] rescued with Trp (Homo sapiens, UniProt O43525, A315T); assay: Two-electrode voltage clamp of Trp-rescued KCNQ3*[Trp265TAG] channels (nonsense suppression); format: cell-based; settings: 1 μM retigabine
T3 construct: expressed in transfected cells; host or cells: Xenopus laevis oocytes co-injected with KCNQ3*[Trp265TAG] cRNA and Trp-acylated suppressor tRNA
T3 sequence (O43525 1-872 A315T): T1 sequence (O43525 1-872 A315T)
Source text: as §3, §2

KCNQ3*[Asn220Cys] = target: T4, KCNQ3*[Asn220Cys] (Homo sapiens, UniProt O43525, A315T/N220C); assay: Two-electrode voltage clamp of KCNQ3*[Asn220Cys] channels in Xenopus oocytes; format: cell-based; settings: 1 μM retigabine, Asn220Cys mutant
T4 sequence (O43525 1-872 N220C/A315T): T1 sequence (O43525 1-872 A315T) with N220C
Source text: as §3, §2

[4] = system: KCNQ3* mutants at Thr271, Leu272, Leu314 and Leu338; assay: Two-electrode voltage clamp of KCNQ3* mutants at Thr271, Leu272, Leu314, Leu338; format: cell-based, human; settings: functional mutants, up to 300 μM retigabine
Source text: as §3, §2

KCNQ1 = KCNQ1 lacks the S5 Trp; cited from earlier work

KCNQ2, sequence (O43526 whole entry, the tested form may be a part): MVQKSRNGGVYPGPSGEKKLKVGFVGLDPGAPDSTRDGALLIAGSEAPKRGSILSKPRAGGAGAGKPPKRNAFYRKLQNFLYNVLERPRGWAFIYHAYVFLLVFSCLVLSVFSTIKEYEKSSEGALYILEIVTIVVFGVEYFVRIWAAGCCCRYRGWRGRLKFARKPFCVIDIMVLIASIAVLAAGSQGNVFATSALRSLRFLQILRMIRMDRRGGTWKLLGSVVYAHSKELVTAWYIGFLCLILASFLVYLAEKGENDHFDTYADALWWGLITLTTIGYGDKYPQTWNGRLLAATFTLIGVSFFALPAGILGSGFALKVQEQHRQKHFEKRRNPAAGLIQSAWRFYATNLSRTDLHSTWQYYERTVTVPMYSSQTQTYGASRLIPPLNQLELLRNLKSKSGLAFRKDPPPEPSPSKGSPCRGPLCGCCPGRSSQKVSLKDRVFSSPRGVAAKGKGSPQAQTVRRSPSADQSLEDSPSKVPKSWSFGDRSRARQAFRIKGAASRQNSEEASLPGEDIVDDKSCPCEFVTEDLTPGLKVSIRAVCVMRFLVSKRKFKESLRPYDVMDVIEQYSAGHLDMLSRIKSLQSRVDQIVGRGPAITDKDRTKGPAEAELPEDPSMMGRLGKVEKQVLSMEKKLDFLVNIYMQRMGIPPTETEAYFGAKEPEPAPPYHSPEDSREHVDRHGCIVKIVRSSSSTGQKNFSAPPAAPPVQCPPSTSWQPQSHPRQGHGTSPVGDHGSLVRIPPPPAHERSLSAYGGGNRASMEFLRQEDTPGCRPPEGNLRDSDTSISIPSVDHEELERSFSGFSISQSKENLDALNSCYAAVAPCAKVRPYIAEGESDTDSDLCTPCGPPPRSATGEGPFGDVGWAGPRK
T2 sequence (O43526 whole entry): as the sequence (O43526 whole entry, the tested form may be a part) above
T2 sequence (O43525 whole entry): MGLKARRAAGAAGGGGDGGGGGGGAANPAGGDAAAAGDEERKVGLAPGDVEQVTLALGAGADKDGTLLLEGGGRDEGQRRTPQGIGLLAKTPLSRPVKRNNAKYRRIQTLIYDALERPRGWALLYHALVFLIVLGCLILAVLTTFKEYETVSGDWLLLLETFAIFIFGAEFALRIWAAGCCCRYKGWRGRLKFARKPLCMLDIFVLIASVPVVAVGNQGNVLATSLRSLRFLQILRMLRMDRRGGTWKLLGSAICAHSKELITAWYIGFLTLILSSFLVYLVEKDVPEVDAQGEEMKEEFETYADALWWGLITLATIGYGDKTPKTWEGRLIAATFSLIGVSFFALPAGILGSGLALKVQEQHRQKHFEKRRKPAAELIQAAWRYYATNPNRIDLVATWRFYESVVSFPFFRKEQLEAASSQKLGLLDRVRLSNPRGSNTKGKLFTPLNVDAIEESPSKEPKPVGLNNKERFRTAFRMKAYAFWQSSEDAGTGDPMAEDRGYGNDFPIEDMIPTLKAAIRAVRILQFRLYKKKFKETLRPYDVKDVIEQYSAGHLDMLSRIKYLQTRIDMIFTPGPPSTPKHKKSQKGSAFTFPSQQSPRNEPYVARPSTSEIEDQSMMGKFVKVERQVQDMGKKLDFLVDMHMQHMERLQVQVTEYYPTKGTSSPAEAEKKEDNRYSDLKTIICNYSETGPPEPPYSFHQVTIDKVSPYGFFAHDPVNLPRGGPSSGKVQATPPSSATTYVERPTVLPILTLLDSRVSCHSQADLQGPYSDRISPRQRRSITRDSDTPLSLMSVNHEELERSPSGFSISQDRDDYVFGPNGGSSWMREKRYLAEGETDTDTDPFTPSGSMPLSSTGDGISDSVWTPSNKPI

Cc1cc(C)c(NC(=O)C2CC3CCC2C3)c(C)c1 (stereo not shown) [ML-213]
EC50 ([1]; KCNQ3* channels, n=5, ± s.e., read-out: EC50 for shift of activation V1/2): 3.6 ± 0.2 µM

O=C(Nc1ccc(Cl)nc1)c1ccc(Cl)cc1 [ICA-110381]
drug potency relative to Trp-rescued channels [2]: not as pronounced | activation relative to Trp channels ([2]; F3-Trp-substituted channels): considerably more activation

O=C(Nc1cnc(Cl)nc1)c1ccc(F)c(F)c1 [ICA-069673]
drug potency relative to Trp-rescued channels [2]: not as pronounced

CCOC(=O)Nc1ccc(NCc2ccc(F)cc2)cc1N [retigabine]
EC50 [1]: 11.6 ± 0.4 µM | increase in peak current ([1]; KCNQ3* channels, rarely greater than): ≤ 15% | hyperpolarizing shift of the V1/2 of activation ([1]; homomeric KCNQ3*, Xenopus oocytes, 100 μM retigabine (Fig. 1)): 40–60 mV | stabilization of channel opening, ΔG=Δ(zFV1/2) ([1]; saturating retigabine, calculated from shift of conductance–voltage relationship): ~25 kJ/mol | hyperpolarizing shift of the V1/2 of activation (KCNQ2): 40–60 mV | retigabine-mediated gating shift (KCNQ2/3 heteromers): ~−40 mV | activation of channels (gating shift, activation kinetics) (KCNQ3*[Trp265Ind]): entirely abolishes retigabine activation | shift in the voltage dependence of activation ([2]; 1 μM retigabine, F3-Trp at Trp265): much larger response | shift in the voltage dependence of activation [3]: very little shift | gating shift / sensitization to retigabine (KCNQ3*[Asn220Cys]): unable to generate a marked gating shift | retigabine-mediated gating shift [4]: retained a large retigabine-mediated gating shift | hyperpolarizing shift of V1/2 of activation (KCNQ1): absent
